# From BindingDB's records for doi:10.1111/j.1747-0285.2009.00842.x (Universita Degli Studi Di Firenze, 2009)
# Columns and labels:
# Carbonic anhydrase 2 = Carbonic anhydrase 2 (Homo sapiens, UniProt P00918); assay: Inhibition Assay; conditions: pH 7.4; 25 °C
# Carbonic anhydrase 7 = Carbonic anhydrase 7 (Homo sapiens, UniProt P43166); assay: Inhibition Assay; conditions: pH 7.4; 25 °C
# Sequence of Carbonic anhydrase 7 (P43166 whole entry): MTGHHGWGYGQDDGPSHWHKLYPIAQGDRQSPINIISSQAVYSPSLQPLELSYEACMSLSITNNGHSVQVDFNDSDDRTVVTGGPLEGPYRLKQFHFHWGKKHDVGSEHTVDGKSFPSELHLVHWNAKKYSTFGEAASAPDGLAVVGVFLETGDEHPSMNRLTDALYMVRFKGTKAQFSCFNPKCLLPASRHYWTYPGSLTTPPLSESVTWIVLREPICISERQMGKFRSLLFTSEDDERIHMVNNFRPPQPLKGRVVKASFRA
Ki (Carbonic anhydrase 2) [nM],Ki (Carbonic anhydrase 7) [nM],SMILES
863,4200,"COc1ccc(/N=N/c2ccc(S(=O)(=O)N(C)C)cc2)cc1 [p-Phenyldiazenyl derivative, 6]"
17.5,–,"NS(=O)(=O)c1ccc(Cl)cc1 [p-Halide-sulfanilamide derivative, 2]"
81,–,"NS(=O)(=O)c1ccc(I)cc1 [p-Halide-sulfanilamide derivative, 3]"
312,752,"CN(C)S(=O)(=O)c1ccc(N=Nc2ccc(O)cc2)cc1 [p-Phenyldiazenyl derivative, 7]"
–,88,"NS(=O)(=O)c1ccc(O)cc1 [p-Hydroxy-benzene derivative, 3a]"
–,68,"NS(=O)(=O)c1ccc(Br)cc1 [p-Halide-sulfanilamide derivative, 2a]"
–,30,CN(C)c1ccc(/N=N/c2ccc(S(N)(=O)=O)cc2)cc1
277,706,"CNS(=O)(=O)c1ccc(N=Nc2ccc(O)cc2)cc1 [p-Phenyldiazenyl derivative, 8]"
